These results are taken from patent publication US20110160223A1, “NMDA Receptor Antagonists for the Treatment of Neuropsychiatric Disorders” (priority 2008, published 2011).

For data set [1], the target named is rat alpha-1 adrenergic receptor in rat brain membranes. Description: alpha-1 adrenergic receptor binding by displacement of 3[H]-prazosin. Particulars: 3[H]-prazosin displacement, read-out: α1 IC50. As to the method: Binding to the rat alpha-1 adrenergic receptor in rat brain membranes was determined by displacement of ^3[H]-prazosin (P. Greengrass and R. Bremner; Binding characteristics of 3H-prazosin to rat brain a-adrenergic receptors. Eur. J. Pharmacol. 1979, 55: 323-326). Compounds were incubated at 0.3 or 3 μM final concentration, in duplicate, and the amount of displaced ^3[H]-prazosin determined by liquid scintillation spectroscopy.
(§1) Binding IC50 values were determined from displacement curves (four-six concentrations, each concentration in duplicate) fit by a non-linear, least squares, regression analysis using MathIQ (ID Business Solutions Ltd., UK). The binding Ki's were determined from the IC50 according to the method of Cheng and Prusoff (Y. Cheng and W. H. Prusoff; Relationship between the inhibition constant (K1) and the concentration of inhibitor which causes 50 percent inhibition (IC50) of an enzymatic reaction. Biochem. Pharmacol. 1973, 22: 3099-3108).

Data set [2] addresses T1, human ether-a-go-go potassium channel (hERG) expressed in HEK293 cells (Homo sapiens, UniProt Q12809).
T1 construct: expressed in transfected cells; host or cells: HEK293
The experiment in a line: hERG binding by displacement of 3[H]-astemizole. The settings on record: 3[H]-astemizole displacement; Ki from IC50 by Cheng and Prusoff. The protocol:
Compounds were evaluated for binding to the human ether-a-go-go potassium channel (hERG) expressed in HEK293 cells by displacement of ^3[H]-astemizole according to the methods by Finlayson et al. (K. Finlayson., L. Turnbull, C. T. January, J. Sharkey, J. S. Kelly; ^3[H]Dofetilide binding to HERG transfected membranes: a potential high throughput preclinical screen. Eur. J. Pharmacol. 2001, 430, 147-148). Compounds were incubated at 1 or 10 μM final concentration, in duplicate, and the amount of displaced ^3[H]-astemizole determined by liquid scintillation spectroscopy. In some cases, a seven concentration (each concentration in duplicate) displacement curve was generated to determine an IC50.
as §1
A general note: hERG is a cardiac potassium channel; its block is linked to QT prolongation.

In data set [3] the target is NMDA receptor (NR1 + NR2 subunits) (Rattus norvegicus, UniProt P35439+Q00960). Description: Two electrode voltage clamp recording from Xenopus laevis oocytes (pH dependence of NMDA antagonism). The class given is cell-based. The settings on record: Table 22. The protocol: cRNA was synthesized from linearized template cDNA for rat glutamate receptor subunits according to manufacturer specifications (Ambion). Quality of synthesized cRNA was assessed by gel electrophoresis, and quantity was estimated by spectroscopy and gel electrophoresis. Stage V and VI oocytes were surgically removed from the ovaries of large, well-fed and healthy Xenopus laevis anesthetized with 3-amino-benzoic acid ethyl ester (3 gm/l) as previously described. Clusters of isolated oocytes were incubated with 292 U/ml Worthington (Freehold, N.J.) type IV collagenase or 1.3 mg/ml collagenase (Life Technologies, Gaithersburg, Md.; 17018-029) for 2 hr in Ca^2+-free solution comprised of (in mM) 115 NaCl, 2.5 KCl, and 10 HEPES, pH 7.5, with slow agitation to remove the follicular cell layer. Oocytes were then washed extensively in the same solution supplemented with 1.8 mM CaCl2 and maintained in Barth's solution comprised of (in mM): 88 NaCl, 1 KCl, 2.4 NaHCO3, 10 HEPES, 0.82 MgSO4, 0.33 Ca(NO3)2, and 0.91 CaCl2 and supplemented with 100 μg/ml gentamycin, 10 μg/ml streptomycin, and 10 μg/ml penicillin. Oocytes were manually defolliculated and injected within 24 hrs of isolation with 3-5 ng of NR1 subunit cRNA and 7-10 ng of NR2 cRNA subunit in a 50 nl volume, or 5-10 ng of AMPA or kainate receptor cRNAs in a 50 nl volume, and incubated in Barth's solution at 18° C. for 1-7 d. Glass injection pipettes had tip sizes ranging from 10-20 microns, and were backfilled with mineral oil.
Sequence of NMDA receptor (NR1 + NR2 subunits) (Q00960 27-1482, other chains not shown): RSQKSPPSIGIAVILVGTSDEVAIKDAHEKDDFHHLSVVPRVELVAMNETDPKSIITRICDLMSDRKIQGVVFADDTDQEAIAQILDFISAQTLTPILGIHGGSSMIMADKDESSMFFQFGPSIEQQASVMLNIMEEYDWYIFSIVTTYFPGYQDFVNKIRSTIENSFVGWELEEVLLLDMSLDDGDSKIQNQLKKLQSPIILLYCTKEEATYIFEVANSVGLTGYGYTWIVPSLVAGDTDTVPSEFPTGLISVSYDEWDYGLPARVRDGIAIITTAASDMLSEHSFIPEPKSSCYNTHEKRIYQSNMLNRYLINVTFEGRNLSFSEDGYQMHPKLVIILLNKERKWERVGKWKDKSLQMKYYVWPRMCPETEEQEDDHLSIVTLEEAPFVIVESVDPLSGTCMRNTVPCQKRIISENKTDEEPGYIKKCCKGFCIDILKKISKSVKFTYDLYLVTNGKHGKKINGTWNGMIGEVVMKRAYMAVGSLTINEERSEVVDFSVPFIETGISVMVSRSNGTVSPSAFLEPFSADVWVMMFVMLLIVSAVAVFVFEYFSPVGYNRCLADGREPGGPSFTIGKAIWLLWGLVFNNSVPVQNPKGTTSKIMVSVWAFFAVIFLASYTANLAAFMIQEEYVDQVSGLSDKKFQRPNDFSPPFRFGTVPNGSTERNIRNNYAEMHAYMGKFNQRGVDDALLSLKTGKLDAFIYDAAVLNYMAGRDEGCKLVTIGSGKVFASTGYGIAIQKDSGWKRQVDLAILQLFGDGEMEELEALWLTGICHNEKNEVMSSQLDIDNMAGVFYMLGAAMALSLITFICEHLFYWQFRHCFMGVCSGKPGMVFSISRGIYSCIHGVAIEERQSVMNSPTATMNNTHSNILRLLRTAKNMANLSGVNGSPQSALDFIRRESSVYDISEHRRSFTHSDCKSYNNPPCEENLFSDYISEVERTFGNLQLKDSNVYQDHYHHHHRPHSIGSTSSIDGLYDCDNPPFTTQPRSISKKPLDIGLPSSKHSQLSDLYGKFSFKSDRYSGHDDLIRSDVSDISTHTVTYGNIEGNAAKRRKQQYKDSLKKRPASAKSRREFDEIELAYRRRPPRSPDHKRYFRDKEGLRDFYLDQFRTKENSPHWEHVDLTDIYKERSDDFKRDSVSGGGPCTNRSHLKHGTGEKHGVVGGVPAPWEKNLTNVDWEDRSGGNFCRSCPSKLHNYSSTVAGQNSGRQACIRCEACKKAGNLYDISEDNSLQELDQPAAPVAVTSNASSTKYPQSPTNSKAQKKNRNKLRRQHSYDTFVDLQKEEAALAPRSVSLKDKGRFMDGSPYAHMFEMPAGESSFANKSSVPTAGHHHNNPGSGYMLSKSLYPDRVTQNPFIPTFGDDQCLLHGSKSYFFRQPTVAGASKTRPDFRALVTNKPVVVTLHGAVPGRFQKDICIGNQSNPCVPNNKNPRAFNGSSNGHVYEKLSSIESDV
Two electrode voltage-clamp recordings were made 2-7 days post-injection as previously described. Oocytes were placed in a dual-track plexiglass recording chamber with a single perfusion line that splits in a Y-configuration to perfuse two oocytes. Dual recordings were made at room temperature (23° C.) using two Warner OC725B two-electrode voltage clamp amplifiers, arranged as recommended by the manufacturer. Glass microelectrodes (1-10 Megaohms) were filled with 300 mM KCl (voltage electrode) or 3 M KCl (current electrode). The bath clamps communicated across silver chloride wires placed into each side of the recording chamber, both of which were assumed to be at a reference potential of 0 mV. Oocytes were perfused with a solution comprised of (in mM) 90 NaCl, 1 KCl, 10 HEPES, and 0.5 BaCl2; pH was adjusted by addition of 1-3 M NaOH of HCl. Oocytes were recorded under voltage clamp at −40 mV. Final concentrations for control application of glutamate (50 μM) plus glycine (30 μM) were achieved by adding appropriate volumes from 100 and 30 mM stock solutions, respectively. In addition, 10 μM final EDTA was obtained by adding a 1:1000 dilution of 10 mM EDTA, in order to chelate contaminant divalent ions such as Zn^2+. Concentration-response curves for experimental compounds were obtained by applying in successive fashion maximal glutamate/glycine, followed by glutamate/glycine plus variable concentrations of experimental compounds. Dose response curves consisting of 4 to 8 concentrations were obtained in this manner. The baseline leak current at −40 mV was measured before and after recording, and the full recording linearly corrected for any change in leak current. Oocytes with glutamate-evoked responses smaller than 50 nA were not included in the analysis. The level of inhibition by applied experimental compounds was expressed as a percent of the initial glutamate response, and averaged together across oocytes from a single frog. Each experiment consisted of recordings from 3 to 10 oocytes obtained from a single frog. Results from 3-6 experiments were pooled, and the average percent responses at antagonist concentrations were fitted by the equation,
Percent Response=(100−minimum)/(1+([conc]/IC50)^nH)+minimum […]
On the technique in general: Two-electrode voltage clamp holds a large cell at a set potential and records current.

Data set [4] is described as follows: Oral absorption (p.o. pharmacokinetics, Table 25). The class given is in vivo, Rats. Particulars: rat, plasma; for bioavailability: read-out: % Absorbed (% F); for AUC(0-t): read-out: AUC (0-last h) p.o.

pIC50, pKi: −log10 of the molar value. Like-named read-outs stand apart in the source and are kept apart here.

T1 sequence (Q12809 whole entry): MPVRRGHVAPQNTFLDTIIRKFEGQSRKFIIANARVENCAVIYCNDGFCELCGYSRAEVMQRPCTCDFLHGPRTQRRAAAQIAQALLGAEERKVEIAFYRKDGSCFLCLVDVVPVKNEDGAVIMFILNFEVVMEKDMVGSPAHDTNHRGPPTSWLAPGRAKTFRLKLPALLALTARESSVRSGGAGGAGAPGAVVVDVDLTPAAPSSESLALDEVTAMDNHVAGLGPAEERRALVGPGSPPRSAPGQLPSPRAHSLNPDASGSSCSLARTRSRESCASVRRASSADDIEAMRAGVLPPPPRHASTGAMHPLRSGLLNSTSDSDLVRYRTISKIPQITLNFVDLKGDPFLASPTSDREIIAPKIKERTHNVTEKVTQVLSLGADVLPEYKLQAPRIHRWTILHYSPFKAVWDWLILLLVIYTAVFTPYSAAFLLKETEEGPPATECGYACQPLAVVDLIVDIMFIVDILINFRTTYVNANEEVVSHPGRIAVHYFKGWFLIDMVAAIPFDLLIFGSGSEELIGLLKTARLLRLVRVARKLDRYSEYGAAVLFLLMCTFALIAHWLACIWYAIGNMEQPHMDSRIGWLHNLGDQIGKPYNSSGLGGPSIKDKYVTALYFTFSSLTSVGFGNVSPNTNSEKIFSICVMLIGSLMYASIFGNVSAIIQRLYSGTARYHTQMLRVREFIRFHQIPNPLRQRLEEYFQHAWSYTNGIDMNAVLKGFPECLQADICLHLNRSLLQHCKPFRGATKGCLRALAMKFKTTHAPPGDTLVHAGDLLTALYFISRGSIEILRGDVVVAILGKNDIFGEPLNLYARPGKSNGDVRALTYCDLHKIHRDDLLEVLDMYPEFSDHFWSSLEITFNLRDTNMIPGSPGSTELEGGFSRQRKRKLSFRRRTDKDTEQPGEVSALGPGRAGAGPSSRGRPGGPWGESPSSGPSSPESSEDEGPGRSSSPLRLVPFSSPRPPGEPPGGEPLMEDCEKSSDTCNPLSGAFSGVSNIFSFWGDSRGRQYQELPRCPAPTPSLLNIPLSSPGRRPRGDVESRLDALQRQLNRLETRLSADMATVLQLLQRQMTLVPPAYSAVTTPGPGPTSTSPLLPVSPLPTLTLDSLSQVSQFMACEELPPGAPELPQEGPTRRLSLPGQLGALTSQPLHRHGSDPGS

As to `Oc1ccc(OC[C@@H](O)CN2CCN(c3ccc(Cl)cc3)CC2)cc1` [drawing 775], the pIC50 (in general, the IC50 on a negative log10 scale, so that one unit is a factor of ten) in data set [1] was 6.14; in data set [3] (pH 6.9, read-out: IC50 pH 6.9), 7.13; in data set [3] (pH 7.6, read-out: IC50 pH 7.6) it was 6.26. The pKi (as a rule, the negative decadic logarithm of the Ki, by convention in mol/L) in data set [2] was 4.41.

Turning to `NC(=O)Nc1ccc(OC[C@@H](O)CN2CCN(c3ccc(Cl)cc3)CC2)cc1` [drawing 778], the negative-log IC50 (pIC50) in data set [1] is 6.47; in data set [3] (pH 6.9, read-out: IC50 pH 6.9), 7.34; in data set [3] (pH 7.6, read-out: IC50 pH 7.6) it was 6.34. Further, the pKi in data set [2] was 4.89.

With `O=C1CCc2cc(OC[C@@H](O)CN3CCN(c4ccc(Cl)cc4)CC3)ccc2N1`, the negative-log IC50 (pIC50) was approximately 7.00 in data set [1]; 7.92 in data set [3] (pH 6.9, read-out: IC50 pH 6.9); 7.18 in data set [3] (pH 7.6, read-out: IC50 pH 7.6). Moreover, the pKi in data set [2] was approximately 5.30.

For `O=c1ccc2cc(OC[C@@H](O)CN3CCN(c4ccc(Cl)cc4)CC3)ccc2[nH]1`, the pIC50 was approximately 6.46 in data set [1]; 7.16 in data set [3] (pH 6.9, read-out: IC50 pH 6.9); 6.26 in data set [3] (pH 7.6, read-out: IC50 pH 7.6). In data set [2], this compound showed a pKi of approximately 5.12.

Turning to `Cc1ccc(N2CCN(C[C@H](O)COc3ccc4c(c3)CCC(=O)N4)CC2)cc1` [drawing 812], in data set [4] (5 mg/kg, 5 MPK, 0-6 hr p.o.), the Cmax – broadly, the maximum level reached in the sampled fluid or tissue – is 407 ng/mL; the time of peak concentration (Tmax) (in general, the time at which the peak concentration occurs) was 0.33 h; the bioavailability came to 31.6%; the AUC(0-t) was 549 ng·h/mL.

In the case of `O=c1[nH]c2ccc(OC[C@@H](O)CN3CCN(c4ccc(Cl)cc4)CC3)cc2o1` [drawing 814], in data set [4] (10 mg/kg, 10 MPK, 0-8 hr p.o.), the Cmax was determined as 30.6 ng/mL, the Tmax was 8 h, the bioavailability is 6.2% and the AUC(0-t) came out at 132 ng·h/mL.

Regarding `O[C@H](COc1ccc2[nH]ncc2c1)CN1CCN(c2ccc(Cl)cc2)CC1`, the negative-log IC50 (pIC50) in data set [1] was approximately 6.52; in data set [3] (pH 6.9, read-out: IC50 pH 6.9), 6.39; in data set [3] (pH 7.6, read-out: IC50 pH 7.6), 5.42. Besides, the negative-log Ki (pKi) in data set [2] was approximately 6.00.

Take `O[C@H](COc1ccc2[nH]c(=S)[nH]c2c1)CN1CCN(c2ccc(Cl)cc2)CC1`: the pIC50 in data set [1] is approximately 6.82; in data set [3] (pH 6.9, read-out: IC50 pH 6.9) it was 7.80; in data set [3] (pH 7.6, read-out: IC50 pH 7.6) it was 7.12. Also, in data set [2], the pKi is approximately 5.12.

Regarding `O=c1[nH]c2ccc(OC[C@@H](O)CN3CCN(c4ccc(Cl)cc4)CC3)cc2[nH]1` [drawing 781], the pIC50 in data set [1] was approximately 6.46; in data set [3] (pH 6.9, read-out: IC50 pH 6.9), 7.85; in data set [3] (pH 7.6, read-out: IC50 pH 7.6), 6.99. The compound also had a pKi in data set [2] of approximately 5.12.

For the compound `Cc1ccc(N2CCN(C[C@H](O)COc3ccc4[nH]c(=O)oc4c3)CC2)cc1` [drawing 813], in data set [4] (10 mg/kg, 10 MPK, 0-8 hr p.o.), the Cmax is 57.8 ng/mL, the time to peak (Tmax) was 6.7 h, the bioavailability worked out at 7.9% and the AUC(0-t) was 284 ng·h/mL.

In the case of `NC(=O)Nc1ccc(OC[C@@H](O)CN2CCN(c3ccc(Cl)cc3)CC2)cc1` [drawing 810], in data set [4] (10 mg/kg, 10 MPK, 0-8 hr p.o.), the maximum concentration (Cmax) amounted to 1560 ng/mL, the Tmax turned out to be 2.67 h, the bioavailability was 146% and the AUC(0-t) was 8450 ng·h/mL.

Turning to `CS(=O)(=O)Nc1ccc(OC[C@@H](O)CN2CCN(c3ccc(Cl)cc3)CC2)cc1`, the pIC50 in data set [1] was 6.46; in data set [3] (pH 6.9, read-out: IC50 pH 6.9), 7.49; in data set [3] (pH 7.6, read-out: IC50 pH 7.6), 6.57. This compound had a negative-log Ki (pKi) in data set [2] of 6.26.

Regarding `O=c1[nH]c2ccc(OC[C@@H](O)CN3CCN(c4ccc(Cl)cc4)CC3)cc2o1` [drawing 776], the pIC50 in data set [1] was 6.21; in data set [3] (pH 6.9, read-out: IC50 pH 6.9), 7.29; in data set [3] (pH 7.6, read-out: IC50 pH 7.6), 6.35. In data set [2], the negative-log Ki (pKi) was 5.80.

Regarding `O=c1[nH]c2ccc(OC[C@@H](O)CN3CCN(c4ccc(F)c(F)c4)CC3)cc2[nH]1` [drawing 811], in data set [4] (5 mg/kg, 5 MPK, 0-6 hr p.o.), the highest level (Cmax) was 558 ng/mL, the Tmax was 0.5 h, the bioavailability was 82.2% and the AUC(0-t) amounted to 1860 ng·h/mL.

As for `O=C1Cc2cc(OC[C@@H](O)CN3CCN(c4ccc(Cl)cc4)CC3)ccc2N1`, the pIC50 in data set [1] was approximately 7.00; in data set [3] (pH 6.9, read-out: IC50 pH 6.9) it was 6.43; in data set [3] (pH 7.6, read-out: IC50 pH 7.6), 7.54. In data set [2], this compound had a pKi of approximately 5.00.
